# Data: patent US8445677B2, “Substituted pyrimidyl guanidine derivatives having anticancer activity” (University of Southern California, priority 2008, dated 2013)
# Assays:
# SkBr-3 = test: MTT cytotoxicity assay (Example 2); format: cell-based, human
# From the text: (§1) Human breast cancer cell lines MDA-MB-435 and SkBr-3 were purchased from the American Type Culture Collection (Manassas, Va.). The HCT116 P53+/+ and HCT116 P53−/− cell lines were kindly provided by Dr. Bert Vogelstein (Johns Hopkins Medical Institutions, Baltimore, Md.). The HEY human ovarian carcinoma cell line was kindly provided by Dr. Louis Dubeau (University of Southern California Norris Cancer Center). Cells were maintained as monolayer cultures in media supplemented with 10% fetal bovine serum (Gemini-Bioproducts, Woodland, Calif.) and 2 mmo/lL-glutamine at 37° C. in a humidified atmosphere of 5% C02. To remove the adherent cells from the flask for passaging and counting, cells were washed with PBS without calcium or magnesium, incubated with a small volume of 0.25% trypsin-EDTA solution (Sigma-Aldrich, St. Louis, Mo.) for 5-10 min, and washed with culture medium and centrifuged. All experiments were performed using cells in exponential growth stage. Cells were routinely checked for mycoplasma contamination using a PCR-based assay (Stratagene, Cambridge, UK).
# (§2) Stock solutions (10 mM) of all compounds were prepared in DMSO and stored at −20° C. Further dilutions were made fresh in cell-culture media just prior to cell treatment.
# (§3) Cytotoxicity was assessed by a 3-(4,5-dimethylthiazol-2-yl)-2,5-diphenyltetrazolium bromide (MTT) assay as previously described.^23 Cells were seeded in 96-well plates and allowed to attach overnight. Cells were subsequently treated with continuous exposure to the corresponding drug for 72 h. An MTT solution (at a final concentration of 0.5 mg/ml) was added to each well, and cells were incubated for 4 h at 37° C. After removal of the medium, DMSO was added and the absorbance was read at 570 nm. All assays were performed in triplicate. The IC50 was determined for each drug from a plot of log (drug concentration) versus percentage of cells killed.
# HEY = test: MTT cytotoxicity assay (Example 2); format: cell-based, human; conditions: 72 h
# From the text: as §1, §2, §3
# MDA-MB-435 = test: MTT cytotoxicity assay (Example 2); format: cell-based; conditions: Homo sapiens, MDA-MB-435, 72 h
# From the text: as §1, §2, §3
# HCT116 p53+/+ [1] = test: MTT cytotoxicity assay (Example 2); format: cell-based
# From the text: as §1, §2, §3
# HCT116 p53−/− [2] = test: MTT cytotoxicity assay (Example 2); format: cell-based
# From the text: as §1, §2, §3
# [3] = test system: panel of cancer cell lines; test: MTT cytotoxicity, panel of cancer cell lines (Example 2); format: cell-based
# From the text: as §1, §2, §3
# HCT p53+/+ cells = test: Colony formation assay; format: cell-based; conditions: several doses
# Description: (§4) Colony formation assays were also performed to confirm the activity of these compounds as described.^1,25 Briefly, cells were plated in 6-well plates at a density of 500 cells/well and allowed to attach. The next day, serial dilutions of the corresponding compounds were added and allowed to incubate for 24 h. After exposure, cells were washed in PBS and cultured in drug-free media until colonies were formed (8-10 days). Cells were subsequently washed, fixed with a 1% glutaraldehyde solution for 30 min, and stained with a solution of crystal violet (2%) for 30 min. After staining, cells were thoroughly washed with water. Colonies were imaged on the ChemiDoc Imaging System (Bio-Rad) and counted using the Quantity One quantitation software package (Bio-Rad). The data reported represent means of at least three independent experiments.
# HCT116 p53+/+ [4] = test: MTT cytotoxicity assay (Example 1); format: cell-based; conditions: MTT, 72 h
# From the text: (§5) Human breast cancer cells MDA-MB-435 were purchased from the American Type Culture Collection (Manassas, Va.). The HCT116 p53+/+ and HCT116 p53−/− cells were kindly provided by Dr. Bert Vogelstein (Johns Hopkins Medical Institutions, Baltimore, Md.). The human ovarian carcinoma cell line (HEY) which is naturally resistant to cisplatin, was kindly provided by Dr. Louis Dubeau, University of Southern California (USC) Norris Cancer Center, and NIH3T3 normal mouse fibroblast cells were kindly provided by Dr. Michael Press from USC. HEY and NIH3T3 cells were maintained as monolayer cultures in RPMI, HCT 116 cells in McCoy1s5A media and MDA-MB 435 in DMEM. Media were purchased from (Mediatech, Virginia) and supplemented with 10% fetal bovine serum (Gemini-Bioproducts, Woodland, Calif.), 2 mM L-glutamine and 5% Penicillin/streptomycin from Bio whittaker were purchased from VWR. Cells were incubated at 37° C. in a humidified atmosphere of 5% CO2. To remove the adherent cells from the flask for passaging and counting, cells were washed with PBS without calcium or magnesium, incubated with a small volume of 0.25% trypsin-EDTA solution (Sigma-Aldrich, St. Louis, Mo.) for 5-10 min, and washed with culture medium and centrifuged. All experiments were performed using cells at exponential growth stage. Cells were routinely checked for mycoplasma contamination using a PCR-based assay (Stratagene, Tex., USA).
# (§6) Stock solutions (10 mM) of all compounds were prepared in DMSO and stored at −20° C. Further dilutions were made fresh in PBS or cell-culture media right before cell treatment.
# (§7) Cytotoxicity was assessed by a 3-(4,s-dimethylthiazol-2-yl)-2,5-diphenyltetrazolium bromide (MTT) assay as previously described.^24 Briefly, cells were seeded in 96-well microtiter plates and allowed to attach overnight. Cells were subsequently treated with continuous exposure to the corresponding drug for 72 h. A MTT solution (at a final concentration of 0.5 mglml) was added to each well, and cells were incubated for 4 h at 37° C. After removal of the medium, DMSO was added and the absorbance was read at 570 nm. All assays were done in triplicate. The IC50 was then determined for each drug from a plot of log (drug concentration) versus percentage of cells killed.
# HCT116 p53−/− [5] = test: MTT cytotoxicity assay (Example 1); format: cell-based; conditions: MTT, 72 h
# From the text: as §5, §6, §7
# HEY cells = test: Colony formation assay; format: cell-based, human; conditions: several doses
# Description: as §4
# NIH3T3 = test: MTT cytotoxicity assay (Example 1); format: cell-based, mouse
# From the text: as §5, §6, §7
# [6] = MTT, 72 h, read-out: IC50 Hct116 p53+/+
# [7] = Homo sapiens, HCT-116, 72 h, MTT, 72 h, read-out: IC50 Hct116 p53+/+
# [8] = Homo sapiens, HCT-116, p53+/+ cell line, read-out: IC50
SMILES,"IC50 (SkBr-3; Homo sapiens, SK-BR-3, 72 h) [µM]",IC50 (MDA-MB-435) [µM],"IC50 (HCT116 p53−/− [2]; Homo sapiens, HCT-116, 72 h) [µM]",IC50 (HEY; Homo sapiens) [µM],IC50 (HCT116 p53+/+ [1]; [7]) [µM],also measured
Cc1cc(C)nc(NC(=N)Nc2cc(Oc3ccccc3)ccc2Cl)n1 [1-SMD6],< 10,8 ± 0.5,1.5 ± 0.1,,,IC50 (SkBr-3; 72 h): 5 ± 1 µM; IC50 (HEY): 3.5 ± 1.6 µM; IC50 (HCT116 p53+/+ [1]; [6]): 1 ± 0.7 µM
Cc1cc(C)nc(NC(=N)Nc2ccc(Cl)cc2C(=O)c2ccccc2)n1 [2-SMD6-4],7.4 ± 0.5,> 10,2.1 ± 0.1,2.5 ± 0.4,2.2 ± 0.8,IC50 ([3]; certain cancer cell lines): < 3 µM
CCCOc1ccc(NC(=N)Nc2nc(C)cc(C)n2)cc1 [3-SMD6-5],> 10,> 10,8.1 ± 0.6,> 10,> 10,
Cc1cc(C)nc(NC(=N)Nc2ccc(Cl)c(C(F)(F)F)c2)n1 [4-SMD6-8],2.5 ± 0.5,,2.1 ± 0.5,2.2 ± 0.3,1.6 ± 0.4,IC50 ([3]; certain cancer cell lines): < 3 µM
COC(=O)/C=C1/N=C(Nc2nc3ccccc3s2)NC1=O [5-SMD18],,7 ± 1.1,6.5,< 10,< 10,IC50 (SkBr-3; 72 h): 2.5 ± 0.8 µM; IC50 (HEY): 7.2 ± 0.2 µM; IC50 (HCT116 p53+/+ [1]; [6]): 7.2 ± 0.1 µM
CCOC(=O)Cc1cc(=O)nc(Nc2nc3ccccc3s2)[nH]1 [6-SMD18-1],> 10,9.5,4 ± 2,,3.4 ± 0.2,
Cc1[nH]c(Nc2nc3ccccc3s2)nc(=O)c1Cc1ccccc1 [7-SMD18-8],> 10,> 10,> 10,,10,IC50 (HCT116 p53+/+ [1]; [6]): > 10 µM; IC50 (HCT116 p53−/− [2]; 72 h): 7.2 µM
CC(C)c1cc(=O)[nH]c(Nc2nc3ccccc3s2)n1 [8-SMD18-14],> 10,> 10,3.6 ± 1.8,,4.5 ± 1.5,
CC(C)(C)c1cc(=O)[nH]c(Nc2nc3ccccc3s2)n1 [9-SMD18-15-BAS 125346 60],> 10,7.5,9.9,,9.9,
CCOC(=O)C1CCN(Cc2ccc(O)c3ncccc23)CC1 [10-SMD58],,2.4 ± 1.5,0.3,,,IC50 (SkBr-3; 72 h): 3.5 ± 0.5 µM; IC50 (HEY): 0.5 µM; IC50 (HCT116 p53+/+ [1]; [8]): < 1 µM; IC50 ([3]; five cancer cell lines): < 3.5 µM
Oc1ccc(Cc2ccc(O)c3ncccc23)c2cccnc12 [11-SMD58-1],1.4 ± 0.8,2.8 ± 1.7,0.25 ± 0.5,0.1,0.45,IC50 (HCT116 p53+/+ [1]; [8]): < 1 µM
CCOC(=O)C1CCCN(Cc2ccc(O)c3ncccc23)C1 (stereo not shown) [12-SMD58],2.2 ± 0.9,4.2 ± 1.2,2 ± 0.1,0.9,1.6 ± 0.4,
CCOC(=O)N1CCN(Cc2ccc(O)c3ncccc23)CC1 [13-SMD58-5],3.7 ± 0.5,5.3 ± 0.1,1 ± 0.1,1.9,2.1 ± 0.2,
CN1CCN(Cc2ccc(O)c3ncccc23)CC1 [14-SMD58-7],3.2 ± 0.1,3.9 ± 0.1,1.7 ± 0.2,0.4,0.7 ± 0.4,
Oc1ccc(CN2CCN(Cc3ccccc3)CC2)c2cccnc12 [15-SMD58-8],1.7 ± 0.7,5.4 ± 0.7,2.5 ± 1.6,1.8 ± 0.7,1.7 ± 0.7,
CCOc1ccc(NCc2ccc(O)c3ncccc23)cc1 [16-SMD58-11],3 ± 1.3,4.9 ± 1.1,1.2 ± 0.2,1.7 ± 0.1,2.3 ± 0.1,
Cc1cccc(NCc2ccc(O)c3ncccc23)c1 [17-SMD58-12],4 ± 0.5,6.6,1.9 ± 0.4,1.5 ± 0.8,1.8 ± 0.4,
Oc1ccc(CNc2ccc(C(F)(F)F)cc2)c2cccnc12 [18-SMD58-13],2.8 ± 0.5,5.2 ± 0.4,2 ± 0.1,1.2 ± 0.1,1.6 ± 0.1,
COc1cccc(NCc2ccc(O)c3ncccc23)c1 [19-SMD58-14],2.9 ± 0.3,5 ± 0.9,2.1 ± 0.1,1.9,1.3 ± 0.9,
Oc1ccc(CN2CCCCC2)c2cccnc12 [20-SMD58-18],8.6 ± 1.4,8.9,6.5 ± 0.8,5 ± 1.6,6.8 ± 1.3,
Oc1ccc(CN2CCN(c3ccccn3)CC2)c2cccnc12 [21-SMD58-19],3 ± 1,2.7,2.2 ± 0.1,2.8 ± 0.6,2.6 ± 0.7,
CCN1CCN(Cc2ccc(O)c3ncccc23)CC1 [22-SMD58-20],4.1 ± 0.1,7.2 ± 0.4,2.1 ± 1.2,1.4 ± 0.2,2.1,
Cc1cccnc1NCc1ccc(O)c2ncccc12 [23-SMD58-22],3.3 ± 0.7,3.1 ± 0.6,1.5 ± 0.1,2.8,1.4 ± 0.4,
Cc1cccc(NCc2ccc(O)c3ncccc23)n1 [24-SMD58-23],3.6 ± 0.5,2.3,1.6 ± 0.3,2.3 ± 0.3,2.8 ± 0.1,
CCC(=O)NC(c1ccc(OC)cc1)c1cc([N+](=O)[O-])c2cccnc2c1O (stereo not shown) [25-SMD58-26],> 10,7.5,7.1 ± 1.1,3.2,6.8 ± 0.2,
CCC(=O)NC(c1cccs1)c1cc([N+](=O)[O-])c2cccnc2c1O (stereo not shown) [26-SMD58-27],4.6 ± 0.8,5.6,4.2 ± 1.2,3.2 ± 0.8,5 ± 0.4,
Oc1ccc(Br)cc1/C=N/Nc1nc2nonc2nc1Nc1ccc(F)cc1 [Compound 2],,,,,,"toxic effect in colony formation assay (HCT p53+/+ cells): significant toxic effect; IC50 (HCT116 p53+/+ [4]; Homo sapiens, HCT-116, 72 h): < 3 µM; IC50 (HCT116 p53+/+ [4]): 1.5 ± 1 µM; IC50 (HCT116 p53−/− [5]; Homo sapiens, HCT-116, 72 h): < 3 µM; IC50 (HCT116 p53−/− [5]): 1.8 ± 0.7 µM; toxic effect in colony formation assay (HEY cells): significant toxic effect; IC50 (NIH3T3; 72 h): 6 ± 1.4 µM; IC50 (NIH3T3; Mus musculus, NIH3T3, 72 h): 8 µM"
